# Read-outs that look alike come from different tables or passages of the source.
# How the values were obtained:
# Format in all cases: physicochemical
# [1] = Shell stability on exposure to aqueous fill composition (half-shell integrity test, H.S.I.T.); conditions: SAE-CD, PVP and water fill; hydrophilic fill-grade CARDINAL SGC
# [2] = H.S.I.T. on starch capsule; conditions: for content in fill composition for an HSIT rating of at least 3: SAE-CD, PVP and water fill, VEGAGEL hard shell capsule
# From the text: (§1) FIG. 3 depicts a chart of the relationship between concentration of SBE cyclodextrin and H.S.I.T. (HALF-SHELL integrity test) rating for HGC (hard gelatin capsule From […]), HGS (hard gelatin capsule from SHIONOGI), HPC (hard hydroxypropyl methylcellulose shell from […]), and HPS (hard hydroxypropyl methylcellulose shell from SHIONOGI), and SSS (soft starch shell […]). The stability obtained was dependent upon the composition of the capsule gel.
# FIGS. 10a-10i depict ternary graphs correlating the concentration of SAE-CD, water and PVP in a fill composition to the H.S.I.T. rating of a soft shell capsule exposed to the fill composition. Aqueous fill solutions comprising differing amounts of PVP, SAE-CD and water were prepared. The stability tests were conducted as described below. The capsules described herein were used: SHIONOGI HGC (hard gelatin capsule) (FIG. 10A), […] HPMC hard shell capsule (FIG. 10b), SHIONOGI HPMC hard shell capsule (FIG. 10C), […] HGC (FIG. 10D), VEGAGEL hard shell capsule (FIG. 10E), hydrophilic fill-grade CARDINAL SGC (soft gelatin capsule) (FIG. 10f), lipophilic fill-grade CARDINAL SGC (FIG. 10g), hydrophilic fill-grade BANNER SGC (FIG. 10h), and lipophilic fill-grade BANNER SGC (FIG. 10i). No other shell-stabilizing material(s) was (were) included in the fill compositions evaluated. The results varied according to the capsule used. Stabilized aqueous fill composition-containing capsule formulations can be achieved with each capsule if one or more of the following fill compositions detailed below are used. • 1. […]
# [3] = Shell stability on exposure to aqueous fill composition (half-shell integrity test, H.S.I.T.); conditions: for content in fill composition for an HSIT rating of at least 3: PVP and water fill, lipophilic fill-grade CARDINAL SGC
# Protocol: The same tests were performed on gelatin capsules obtained from CARDINAL HEALTH.
# [4] = Shell stability toward aqueous fill composition, statements on soft gelatin capsules; conditions: for stability provided to capsules: about ≧50% wt.
# [5] = Water activity measurement; conditions: about 20-25° C.
# Protocol: Without being held bound to a particular mechanism, it is believed that the increasing the concentration of derivatized cyclodextrin present in the aqueous fill composition results in reduced water activity for the fill composition. The table below provides a summary of water activity versus concentration of cyclodextrin derivatives or some shell-stabilizing materials in water at about 20-25° C., or ambient temperature.
# The values detailed above are approximate and can vary from instrument to instrument. These values were determined according to the procedure described herein on a water activity meter described herein. The numbers can also vary within the standard deviation of a particular instrument. It is also possible for the numbers to vary according to the accuracy and reproducibility of the instrument used as well as the method for calibrating the instrument with solution standards of known water activity.
# Water activity was measured by placing a sample solution in a small, sealed container and determining the equilibrium humidity and temperature in the container. Instruments such as the HygroLab 3 from Rotronic Instrument Corp. , Huntington, N.Y. were used to measure the water activity. The humidity is determined using a thin film capacitive sensor in the headspace of the container. The temperature is determined using a Pt RTD 100 sensor. From these measurements the activity of water (Aw) is calculated by the instrument. The instrument has an accuracy of about ±0.015 Aw and a repeatability of about ±0.005 Aw. Carefully prepared salt-containing stock solutions of known concentration and water activity were used to calibrate the instrument prior to use.
# [6] = H.S.I.T. rating versus SBE concentration (FIG. 3)
# From the text: as §1
# [7] = 40% wt. cyclodextrin derivative in water, LFC
# [8] = 50% wt. cyclodextrin derivative in water, LFC
# [9] = 55% wt. cyclodextrin derivative in water, LFC
# [10] = 60% wt. cyclodextrin derivative in water, LFC
molecule,measurement,setting,value
O [Water],content in fill composition for an HSIT rating of at least 3,[1],≦54%
same,content in fill composition for an HSIT rating of at least 3,[2],≦64%
same,content in fill composition for a stabilized capsule formulation,"[3]; SAE-CD, PEG and water fill, LFC",≦48%
same,content in fill composition for an HSIT rating of at least 3,[3]; SAE-CD,≦49%
sulfobutyl ether cyclodextrin [SAE-CD],content in fill composition for an HSIT rating of at least 3,[1],≧6%
same,content in fill composition for an HSIT rating of at least 3,[2],≧6%
same,stability provided to capsules,"[2]; SBE concentration of about ≧30% wt., soft starch capsules, FIG. 3",at least a one-week stability
same,shelf-life of soft gelatin capsules,[4]; 50% wt. or more based upon total weight of water and SAE-CD or of the fill composition,at least one week
same,stability provided to capsules,"[4]; LFB and LFC soft gelatin capsules as printed, FIG. 2",at least a one week stability
same,stability provided to capsules,"[4]; LFB and LFC soft gelatin capsules, FIG. 1",at least a one week stability
same,water activity of fill composition that forms a stable soft gelatin capsule formulation,"[4]; fill composition comprising SBE-CD, PEG and water, FIG. 8",≤ 0.90±0.02
same,stability of shell toward fill composition,"[4]; soft gelatin shells from BANNER PHARMACAPS, less than 40% by wt. SAE-CD",unstable
same,stability of shell toward fill composition,"[4]; soft gelatin shells from BANNER PHARMACAPS, ≧50% wt. SAE-CD",stable for at least one week
same,stability of shell toward fill composition,"[4]; soft gelatin shells from BANNER PHARMACAPS, ≧55% wt. SAE-CD",stable for at least ten days
same,stability of shell toward fill composition,"[4]; soft gelatin shells from BANNER PHARMACAPS, ≧60% wt. SAE-CD",stable for at least three weeks
same,stability of shell toward fill composition,"[4]; soft gelatin shells from CARDINAL HEALTH, less than 40% by wt. SAE-CD",unstable
same,stability of shell toward fill composition,"[4]; soft gelatin shells from CARDINAL HEALTH, ≧50% wt. SAE-CD",stable for at least one week
same,stability of shell toward fill composition,"[4]; soft gelatin shells from CARDINAL HEALTH, ≧55% wt. SAE-CD",stable for at least two weeks
same,time the capsules were stable,"[4]; soft gelatin shells from CARDINAL HEALTH, ≧60% wt. SAE-CD",at least 21 days
same,water activity of fill composition that provides an increase in the stability of the shell,"[4]; soft-gelatin capsule, the agent alone in water",less than 0.95
same,content in fill composition for a stabilized capsule formulation,[3],≧18%
same,Increase in shell size,[3]; [7],>3 × original
same,Observations,[3]; [7],shape intact
same,Time for failure,[3]; [7],4 days
same,Increase in shell size,[3]; [8],2 × original
same,Observations,[3]; [8],deformed
same,Time for failure,[3]; [8],7 days
same,Increase in shell size,[3]; [9],Slightly enlarged
same,Observations,[3]; [9],No deformities
same,Time for failure,[3]; [9],≧14 days
same,Increase in shell size,[3]; [10],no change
same,Observations,[3]; [10],no change
same,Time for failure,[3]; [10],>21 days
same,content in fill composition for an HSIT rating of at least 3,[3]; SAE-CD,≧6%
same,Water Activity (approximate values),[5]; 10 % w/w in water,~0.98
same,Water Activity (approximate values),[5]; 20 % w/w in water,~0.98
same,Water Activity (approximate values),[5]; 30 % w/w in water,~0.97
same,Water Activity (approximate values),[5]; 40 % w/w in water,~0.95
same,Water Activity (approximate values),[5]; 50 % w/w in water,~0.91
same,Water Activity (approximate values),[5]; 55 % w/w in water,~0.88
same,Water Activity (approximate values),[5]; 60 % w/w in water,~0.86
same,Water Activity (approximate values),[5]; 70 % w/w in water,~0.76
same,stability provided to capsules,"[6]; SBE concentration of about ≧60% wt., hard gelatin capsules",at least a one-week stability
same,stability provided to capsules,[6]; hard hydroxypropyl methylcellulose capsules,at least a two-week stability

# Reference: patent publication US7829114B2, “Capsules containing aqueous fill compositions stabilized with derivatized cyclodextrin” (CyDex Pharmaceuticals, Inc., priority 2002, dated 2010)
